Starred links: 1 amine or outer side, 2 acyl side, 3 side chain; linkers in the order of their positions; H or OH if unused. Positions of bridges follow the written chain, without caps; N, C: chain ends. Non-standard residues stand in square brackets, D forms with d. Residues, ends and D or L forms follow the SMILES beside them. ξ: configuration not given here. *: point of attachment. pTerphenylCO(4''-OnC5H11) = CCCCCOc1ccc(-c2ccc(-c3ccc(C(=O)*)cc3)cc2)cc1; Orn(4R-OH,5R-OH) = O=C([C@H](C[C@@H](O)[C@@H](O)N[*:3])N[*:1])[*:2]; hTyr(3S-OH,4S-OH) = N[C@H](C(=O)O)[C@H](O)[C@@H](O)c1ccc(O)cc1; Pro(3S-OH,4S-Me) = C[C@H]1CN[C@H](C(=O)O)[C@H]1O; ξPro(4R-OH) = O=C(O)C1C[C@@H](O)CN1
System: Human Renal Glomerular Endothelial Cells (HRGEC)
Assay: Oxygen and glucose deprivation followed by replenishment, cell survival (calcein AM), HRGEC
Format: cell-based
Description: Anidulafungin and micafungin were tested on Human Renal Glomerular Endothelial Cells (HRGEC, Innoprot P10665), on Human Renal Proximal Tubular Epithelial Cells (HRPTEpiC, Innoprot P10662), on Human Astrocytes (HA, caltag SC-1800), on Human Cardiac Microvascular Endothelial Cells (HCMEC, Caltag SC-6000), on Human Hepatic Sinusoidal Endothelial Cells (HHSEC, Caltag SC-5000), on Rat Primary Kidney Glomerular Endothelial cells (Cellbiologics, RN-6014G) and on Bovine Brain Microvascular Endothelial Cells (BBMEC, Caltag SC-B100).
In a first phase, these isolated, purified and cryopreserved cells are thawed and multiplied according to the supplier's recommendations in T75 or T175 flasks pre-coated with 2 μg of fibronectin/[…] (CORNING) for HRGEC, HCMEC, HHSEC and BBMEC, or 2 μg poly-L-lysin/cm^2 (Caltag SC-0403) for HRPTEpiC and HA, or 15 mL/flask 175 cm^2 gelatin-based solution (Cellbiologics) in the presence of endothelial cell supplemented growth medium ECM (P60104, INNOPROT, Caltag, SC-1001) for HRGEC, HCMEC, HHSEC, RPKGEC or BBMEC, or astrocyte cell supplemented growth medium AM (Caltag SC-1801) for HA or epithelial cell supplemented growth medium EpiCM (P60106, INNOPROT) for HRPTEpiC, at 37° C. under 5% CO2 and saturated humidity until their confluency. They are then harvested by trypsinization according to the method described by the supplier for exactly 5 minutes and then reseeded in new flasks a maximum of three times.
To carry out the oxygen and glucose deprivation test followed by their replenishment, the cells will be seeded in 96-well black plates with transparent flat bottom (GREINER). Once a sufficient number of cells has been obtained to allow seeding of 2000 to 15000 cells per well of 96-well plates depending on the cell type, the cells are seeded in these 96-well plates previously coated with an extracellular matrix as listed above for the flasks. The cells are cultured for 5 to 8 days according to the cell type, in the presence of the same growth medium as in the flask as described above except for HRGEC and HRPTEpiC for which DMEM (DUTSCHER) with 1 g/L of supplemented glucose is used, at 37° C. under 5% CO2 and saturated humidity to obtain confluency.
On the first day of oxygen and glucose deprivation, (5th, 6th, 7th or 8th day of culture), the culture conditions are drastically changed. The medium of all plates is removed and replaced by DMEM (DUTSCHER) medium without glucose and supplemented only with 1% penicillin-streptomycin (DUTSCHER). Anidulafungin or micafungin dissolved in dimethyl sulfoxide (DMSO) is then added to each well at the desired concentration, resulting in a maximum of 1% DMSO, and the plates are placed under hypoxia at <1% 02 and 5% CO2 at 37° C. for 24 hours of culture. Each compound was tested in a concentration range.
After 24 hours, the growth medium is changed and replaced by a richer medium, DMEM (DUTSCHER) at 1 g/L glucose and 2% FBS (INNOPROT) and 1% penicillin-streptomycin (DUTSCHER). These media will have been pre-equilibrated at 37° C. in advance. The cells are then returned to culture at 37° C. under 20% 02 and 5% CO2 for 22h.
After 22 hours of reoxygenation, the potential protective effect of anidulafungin or micafungin is measured by a cell viability test using calcein AM (CORNING), which is a dye substrate. The calcein AM can easily cross the cell membrane of the viable cells. The AM ester groups mask the part of the molecule that chelates calcium. Once inside the cells, the (non-fluorescent) calcein AM is hydrolyzed to (fluorescent) calcein by endogenous esterases. The resulting calcein molecule binds to calcium inside the cell and remains trapped inside the cell. These molecules emit strong green fluorescence when subjected to […] of a particular wavelength (495 nm). Since dead cells lack esterase activity, only living cells are labelled.
This cell viability test is performed in two steps. […]

[1] = [Anidulafungin] log μM 0.7781513
[2] = [Anidulafungin] log μM 1.079181
[3] = [Anidulafungin] log μM 1.255273

CCCCCOc1ccc(-c2ccc(-c3ccc(C(=O)N[C@H]4C[C@@H](O)[C@@H](O)NC(=O)[C@@H]5[C@@H](O)[C@@H](C)CN5C(=O)[C@H]([C@@H](C)O)NC(=O)[C@H]([C@H](O)[C@@H](O)c5ccc(O)cc5)NC(=O)C5C[C@@H](O)CN5C(=O)[C@H]([C@@H](C)O)NC4=O)cc3)cc2)cc1 (stereo partly drawn) [Anidulafungin] ({pTerphenylCO(4''-OnC5H11)}-[Orn(4R-OH,5R-OH)]T[ξPro(4R-OH)][hTyr(3S-OH,4S-OH)]T[Pro(3S-OH,4S-Me)]; lactam 1-C)
Globalfluo assay 1 ([Anidulafungin] log μM 0): 1595273 arbitrary units | Globalfluo assay 2 ([Anidulafungin] log μM 0): 2299957 arbitrary units | Globalfluo assay 3 ([Anidulafungin] log μM 0): 2320330 arbitrary units | Mean globalfluo ([Anidulafungin] log μM 0): 2071853 arbitrary units | Survival rate (%) ([Anidulafungin] log μM 0): −6% | Globalfluo assay 1 ([Anidulafungin] log μM 0.30103): 3108717 arbitrary units | Globalfluo assay 2 ([Anidulafungin] log μM 0.30103): 8079028 arbitrary units | Globalfluo assay 3 ([Anidulafungin] log μM 0.30103): 4587276 arbitrary units | Mean globalfluo ([Anidulafungin] log μM 0.30103): 5258340 arbitrary units | Survival rate (%) ([Anidulafungin] log μM 0.30103): 7% | Globalfluo assay 1 ([Anidulafungin] log μM 0.60206): 6404501 arbitrary units | Globalfluo assay 2 ([Anidulafungin] log μM 0.60206): 5391467 arbitrary units | Globalfluo assay 3 ([Anidulafungin] log μM 0.60206): 4055726 arbitrary units | Mean globalfluo ([Anidulafungin] log μM 0.60206): 5283898 arbitrary units | Survival rate (%) ([Anidulafungin] log μM 0.60206): 7% | Globalfluo assay 1 [1]: 1844220 arbitrary units | Globalfluo assay 2 [1]: 8446890 arbitrary units | Globalfluo assay 3 [1]: 6499110 arbitrary units | Mean globalfluo [1]: 5596740 arbitrary units | Survival rate (%) [1]: 8% | Globalfluo assay 1 ([Anidulafungin] log μM 0.90309): 7152564 arbitrary units | Globalfluo assay 2 ([Anidulafungin] log μM 0.90309): 8021501 arbitrary units | Globalfluo assay 3 ([Anidulafungin] log μM 0.90309): 6792572 arbitrary units | Mean globalfluo ([Anidulafungin] log μM 0.90309): 7322212 arbitrary units | Survival rate (%) ([Anidulafungin] log μM 0.90309): 15% | Globalfluo assay 1 ([Anidulafungin] log μM 1): 8082278 arbitrary units | Globalfluo assay 2 ([Anidulafungin] log μM 1): 8981812 arbitrary units | Globalfluo assay 3 ([Anidulafungin] log μM 1): 10460790 arbitrary units | Mean globalfluo ([Anidulafungin] log μM 1): 9174960 arbitrary units | Survival rate (%) ([Anidulafungin] log μM 1): 23% | Globalfluo assay 1 [2]: 12175690 arbitrary units | Globalfluo assay 2 [2]: 10104310 arbitrary units | Globalfluo assay 3 [2]: 9396440 arbitrary units | Mean globalfluo [2]: 10558813 arbitrary units | Survival rate (%) [2]: 28% | Globalfluo assay 1 ([Anidulafungin] log μM 1.20412): 12170420 arbitrary units | Globalfluo assay 2 ([Anidulafungin] log μM 1.20412): 9545764 arbitrary units | Globalfluo assay 3 ([Anidulafungin] log μM 1.20412): 9735499 arbitrary units | Mean globalfluo ([Anidulafungin] log μM 1.20412): 10483894 arbitrary units | Survival rate (%) ([Anidulafungin] log μM 1.20412): 28% | Globalfluo assay 1 [3]: 10855790 arbitrary units | Globalfluo assay 2 [3]: 12347330 arbitrary units | Globalfluo assay 3 [3]: 7837444 arbitrary units | Mean globalfluo [3]: 10346855 arbitrary units | Survival rate (%) [3]: 27% | Globalfluo assay 1 ([Anidulafungin] log μM 1.30103): 10143140 arbitrary units | Globalfluo assay 2 ([Anidulafungin] log μM 1.30103): 10354290 arbitrary units | Globalfluo assay 3 ([Anidulafungin] log μM 1.30103): 10227990 arbitrary units | Mean globalfluo ([Anidulafungin] log μM 1.30103): 10241807 arbitrary units | Survival rate (%) ([Anidulafungin] log μM 1.30103): 27%

Reference: patent US11458189B2, “Cytoprotective drugs” (BALMES TRANSPLANTATION, priority 2017, dated 2022)
